A word on the IC50: it is the concentration that inhibits the measured activity by half.

In one experiment the target is T1, LXRβ (Homo sapiens, UniProt P55055).
T1 sequence (P55055 1-460): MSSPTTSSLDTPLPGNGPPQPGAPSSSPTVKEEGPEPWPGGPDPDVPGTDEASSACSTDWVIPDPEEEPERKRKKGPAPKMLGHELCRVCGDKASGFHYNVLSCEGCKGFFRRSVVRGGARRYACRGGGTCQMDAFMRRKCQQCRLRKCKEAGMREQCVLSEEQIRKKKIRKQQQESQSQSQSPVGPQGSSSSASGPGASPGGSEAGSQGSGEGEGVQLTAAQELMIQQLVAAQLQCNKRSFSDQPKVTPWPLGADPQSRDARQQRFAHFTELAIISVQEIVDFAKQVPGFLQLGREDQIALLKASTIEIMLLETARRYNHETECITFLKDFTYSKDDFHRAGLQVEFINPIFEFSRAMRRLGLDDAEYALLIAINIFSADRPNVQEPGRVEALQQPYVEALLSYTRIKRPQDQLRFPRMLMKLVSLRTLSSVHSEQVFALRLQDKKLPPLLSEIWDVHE
In words: LXRE-driven luciferase cotransfection assay in HEK293 cells. It is filed as cell-based.

Another experiment addresses T2, LXRα (Homo sapiens, UniProt Q13133).
T2 sequence (Q13133 209-447 limits assumed): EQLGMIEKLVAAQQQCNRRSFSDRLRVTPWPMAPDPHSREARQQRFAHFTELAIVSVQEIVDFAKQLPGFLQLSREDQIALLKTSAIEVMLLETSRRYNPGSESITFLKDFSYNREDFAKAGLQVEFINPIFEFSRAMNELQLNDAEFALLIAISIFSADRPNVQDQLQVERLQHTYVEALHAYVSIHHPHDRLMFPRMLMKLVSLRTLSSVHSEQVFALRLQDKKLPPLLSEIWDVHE
In words: Luminex coregulator peptide recruitment with LXRα LBD at […]. It is filed as cell-based.

Regarding `Cc1cc(C)c(S(=O)(=O)N(Cc2ccc(-c3cccc(S(C)(=O)=O)c3)cc2)Cc2ccc(C(F)(F)F)o2)c(C)c1` [GSK2033], the IC50 was found to be 9 nM against LXRβ and 17 nM at LXRα.

For the origin of these results see paper PMC5087326 (Biochemical and biophysical research communications, 2016).
